Series [1] is described as follows: Liver microsomal stability, human. The settings on record: both sexes, pooled liver microsomes, pH 7.4, 0.5 mg/mL protein, read-out: Liver Microsomal Stability (T1/2/mins) human. In kind it is in vitro ADME. As for the experimental part:
(§1) Microsomal Incubation: Experimental Procedure
(§2) Pooled human liver microsomes (pooled male and female), pooled rat liver microsomes (male Sprague Dawley rats) and pooled dog liver microsomes (male Beagle dog) are purchased from a reputable commercial supplier and stored at −80° C. prior to use.
(§3) Microsomes (final protein concentration 0.5 mg/mL), 0.1 M phosphate buffer pH 7.4 and test compound (final substrate concentration 3 μM; final DMSO concentration 0.25%) are pre-incubated at 37° C. prior to the addition of NADPH (final concentration 1 mM) to initiate the reaction. The final incubation volume is 50 μL. A control incubation is included for each compound tested where 0.1 M phosphate buffer pH 7.4 is added instead of NADPH (minus NADPH). Two control compounds are included with each species. All incubations are performed singularly for each test compound.
(§4) Compounds are incubated for 0, 5, 15, 30 and 45 min. The control (minus NADPH) is incubated for 45 min only. […] Following protein precipitation, the sample supernatants are combined in cassettes of up to 4 compounds, internal standard is added and samples analysed by LC-MS/MS. From a plot of ln peak area ratio (compound peak area/internal standard peak area) against time, the gradient of the line is determined. Subsequently, half-life and intrinsic clearance are calculated

Series [2] can be described thus: Liver microsomal stability, rat. The class given is in vitro ADME, Sprague Dawley rats. Conditions: male, Sprague Dawley, pooled liver microsomes, pH 7.4, 0.5 mg/mL protein, read-out: Liver Microsomal Stability (T1/2/mins) rat. How it is done: as §1, §2, §3, §4

Regarding `NC1CCN(c2ncc(CN3C(=O)C4(CC4)c4ccc(F)cc43)c(N[C@H]3CC[C@H](O)CC3)n2)C1` (some centres unmarked) [Compound 2, 1′-((2-(3-Aminopyrrolidin-1-yl)-4-(((1r,4r)-4-hydroxycyclohexyl)amino)pyrimidin-5-yl)methyl)-6′-fluorospiro[cyclopropane-1,3′-indolin]-2′-one], the figures for the half-life at 3 μM in series [1] and in series [2] were 2.82 h and 2.17 h, respectively.

The values above are taken from patent US10603319B2, “Pyrimidine derivatives and their use in treating or preventing a respiratory syncytial virus infection” (REVIRAL LIMITED, priority 2016, dated 2020).
